The text below walks through data of ChEMBL document CHEMBL3991601, “The target landscape of clinical kinase drugs” (Science, 2017).

The target of assay [1] is Tyrosine-protein kinase ABL2 (Homo sapiens, UniProt P42684).
For assay [2], the target named is Bone morphogenetic protein receptor type-1A (Homo sapiens, UniProt P36894).
The target in assay [3] is Tyrosine-protein kinase CSK (Homo sapiens, UniProt P41240).
Assay [4] has as its target T1, Cytochrome c1, heme protein, mitochondrial (Homo sapiens, UniProt P08574).
T1 sequence (P08574 whole entry): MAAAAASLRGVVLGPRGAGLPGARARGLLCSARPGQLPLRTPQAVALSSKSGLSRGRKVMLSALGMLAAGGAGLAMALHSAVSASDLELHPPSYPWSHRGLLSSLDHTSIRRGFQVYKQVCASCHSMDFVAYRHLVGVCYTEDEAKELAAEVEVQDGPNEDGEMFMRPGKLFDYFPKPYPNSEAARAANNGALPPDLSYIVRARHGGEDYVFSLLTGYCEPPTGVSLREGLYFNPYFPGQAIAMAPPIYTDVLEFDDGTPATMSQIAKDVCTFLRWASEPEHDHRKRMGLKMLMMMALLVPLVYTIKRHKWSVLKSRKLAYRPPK

The target in assay [5] is Tyrosine-protein kinase Fyn (Homo sapiens, UniProt P06241).
Assay [6] deals with T2, Scaffold protein ILK (Homo sapiens, UniProt Q13418).
T2 sequence (Q13418 whole entry): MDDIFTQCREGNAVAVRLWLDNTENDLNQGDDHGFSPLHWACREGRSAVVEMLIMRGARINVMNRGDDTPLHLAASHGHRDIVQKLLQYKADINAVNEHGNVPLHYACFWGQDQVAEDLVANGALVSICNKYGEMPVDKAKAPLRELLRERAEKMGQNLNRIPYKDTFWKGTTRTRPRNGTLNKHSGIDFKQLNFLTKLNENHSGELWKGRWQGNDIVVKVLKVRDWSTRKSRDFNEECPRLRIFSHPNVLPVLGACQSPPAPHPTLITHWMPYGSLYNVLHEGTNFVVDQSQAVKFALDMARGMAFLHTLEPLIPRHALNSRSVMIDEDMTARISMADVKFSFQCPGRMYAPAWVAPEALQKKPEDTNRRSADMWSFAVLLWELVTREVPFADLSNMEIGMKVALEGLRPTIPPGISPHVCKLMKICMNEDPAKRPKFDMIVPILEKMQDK

Assay [7] deals with T3, Serine/threonine-protein kinase LATS1 (Homo sapiens, UniProt O95835).
T3 sequence (O95835 whole entry): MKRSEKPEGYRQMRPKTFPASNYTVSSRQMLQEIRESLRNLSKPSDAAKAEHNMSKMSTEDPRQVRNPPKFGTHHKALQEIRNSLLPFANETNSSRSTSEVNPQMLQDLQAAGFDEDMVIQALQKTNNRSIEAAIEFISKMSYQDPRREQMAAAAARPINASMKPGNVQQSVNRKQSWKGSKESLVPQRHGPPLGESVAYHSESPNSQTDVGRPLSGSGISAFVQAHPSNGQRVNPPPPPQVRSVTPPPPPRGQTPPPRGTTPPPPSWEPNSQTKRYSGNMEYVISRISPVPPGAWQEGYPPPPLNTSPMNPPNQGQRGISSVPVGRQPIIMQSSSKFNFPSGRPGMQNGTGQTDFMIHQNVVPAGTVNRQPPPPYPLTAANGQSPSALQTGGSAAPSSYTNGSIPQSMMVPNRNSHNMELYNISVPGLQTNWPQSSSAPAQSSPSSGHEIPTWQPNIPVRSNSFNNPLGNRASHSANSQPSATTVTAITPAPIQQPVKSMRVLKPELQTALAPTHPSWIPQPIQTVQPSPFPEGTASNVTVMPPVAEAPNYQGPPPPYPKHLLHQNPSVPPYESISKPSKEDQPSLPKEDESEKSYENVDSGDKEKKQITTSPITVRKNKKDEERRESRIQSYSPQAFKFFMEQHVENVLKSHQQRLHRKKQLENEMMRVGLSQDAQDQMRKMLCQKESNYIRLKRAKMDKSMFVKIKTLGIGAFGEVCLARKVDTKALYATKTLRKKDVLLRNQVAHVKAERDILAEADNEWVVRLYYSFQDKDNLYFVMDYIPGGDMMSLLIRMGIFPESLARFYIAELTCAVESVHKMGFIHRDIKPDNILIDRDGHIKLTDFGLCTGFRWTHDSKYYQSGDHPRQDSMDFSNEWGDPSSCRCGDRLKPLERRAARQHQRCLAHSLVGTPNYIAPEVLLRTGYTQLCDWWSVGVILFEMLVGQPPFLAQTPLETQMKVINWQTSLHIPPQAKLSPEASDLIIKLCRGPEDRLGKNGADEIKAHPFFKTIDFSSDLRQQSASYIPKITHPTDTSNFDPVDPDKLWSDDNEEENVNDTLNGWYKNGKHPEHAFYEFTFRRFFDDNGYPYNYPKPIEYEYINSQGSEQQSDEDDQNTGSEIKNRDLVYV

The target in assay [8] is S-adenosylmethionine synthase isoform type-2 (Homo sapiens, UniProt P31153).
Assay [9] deals with T4, ADP/ATP translocase 2 (Homo sapiens, UniProt P05141).
T4 sequence (P05141 whole entry): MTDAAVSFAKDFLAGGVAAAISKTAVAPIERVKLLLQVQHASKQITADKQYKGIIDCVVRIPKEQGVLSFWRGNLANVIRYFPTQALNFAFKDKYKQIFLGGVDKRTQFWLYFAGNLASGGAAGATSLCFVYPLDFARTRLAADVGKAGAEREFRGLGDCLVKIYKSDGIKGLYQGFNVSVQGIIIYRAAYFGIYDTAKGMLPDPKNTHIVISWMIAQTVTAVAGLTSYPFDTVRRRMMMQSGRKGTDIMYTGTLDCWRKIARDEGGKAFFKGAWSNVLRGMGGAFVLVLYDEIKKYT

In assay [10] the target is Tyrosine-protein kinase Yes (Homo sapiens, UniProt P07947).

Active and inactive are the calls of the source. Some results are limits rather than exact numbers.
Also: in the data inactive means no Kd found up to 30 µM.

Sequence of Bone morphogenetic protein receptor type-1A (P36894 whole entry): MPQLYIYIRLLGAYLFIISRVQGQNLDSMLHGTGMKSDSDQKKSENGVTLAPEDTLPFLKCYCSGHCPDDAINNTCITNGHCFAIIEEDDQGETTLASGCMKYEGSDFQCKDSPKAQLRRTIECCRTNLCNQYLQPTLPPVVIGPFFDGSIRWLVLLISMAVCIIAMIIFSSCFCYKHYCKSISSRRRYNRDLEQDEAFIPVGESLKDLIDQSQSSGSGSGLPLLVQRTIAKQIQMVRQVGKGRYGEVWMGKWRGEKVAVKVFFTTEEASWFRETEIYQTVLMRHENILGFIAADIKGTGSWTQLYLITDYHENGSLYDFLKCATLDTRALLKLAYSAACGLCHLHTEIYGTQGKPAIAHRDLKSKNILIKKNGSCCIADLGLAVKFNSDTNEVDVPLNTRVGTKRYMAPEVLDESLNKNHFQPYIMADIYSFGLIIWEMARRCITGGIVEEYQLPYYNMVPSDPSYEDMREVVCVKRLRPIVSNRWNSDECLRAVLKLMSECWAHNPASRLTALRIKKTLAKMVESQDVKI
Sequence of S-adenosylmethionine synthase isoform type-2 (P31153 whole entry, canonical isoform): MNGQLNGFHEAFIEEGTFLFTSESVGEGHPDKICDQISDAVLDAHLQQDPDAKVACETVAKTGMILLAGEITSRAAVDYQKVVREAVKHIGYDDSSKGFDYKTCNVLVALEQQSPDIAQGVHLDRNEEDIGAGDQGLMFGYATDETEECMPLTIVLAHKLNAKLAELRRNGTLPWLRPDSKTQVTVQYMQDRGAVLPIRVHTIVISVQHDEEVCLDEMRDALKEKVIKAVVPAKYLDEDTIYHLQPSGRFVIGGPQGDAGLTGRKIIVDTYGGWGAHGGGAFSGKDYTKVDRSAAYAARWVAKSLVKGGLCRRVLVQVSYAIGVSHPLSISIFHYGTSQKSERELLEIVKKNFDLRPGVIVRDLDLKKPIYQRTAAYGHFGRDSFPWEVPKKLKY
Sequence of Tyrosine-protein kinase ABL2 (P42684 whole entry): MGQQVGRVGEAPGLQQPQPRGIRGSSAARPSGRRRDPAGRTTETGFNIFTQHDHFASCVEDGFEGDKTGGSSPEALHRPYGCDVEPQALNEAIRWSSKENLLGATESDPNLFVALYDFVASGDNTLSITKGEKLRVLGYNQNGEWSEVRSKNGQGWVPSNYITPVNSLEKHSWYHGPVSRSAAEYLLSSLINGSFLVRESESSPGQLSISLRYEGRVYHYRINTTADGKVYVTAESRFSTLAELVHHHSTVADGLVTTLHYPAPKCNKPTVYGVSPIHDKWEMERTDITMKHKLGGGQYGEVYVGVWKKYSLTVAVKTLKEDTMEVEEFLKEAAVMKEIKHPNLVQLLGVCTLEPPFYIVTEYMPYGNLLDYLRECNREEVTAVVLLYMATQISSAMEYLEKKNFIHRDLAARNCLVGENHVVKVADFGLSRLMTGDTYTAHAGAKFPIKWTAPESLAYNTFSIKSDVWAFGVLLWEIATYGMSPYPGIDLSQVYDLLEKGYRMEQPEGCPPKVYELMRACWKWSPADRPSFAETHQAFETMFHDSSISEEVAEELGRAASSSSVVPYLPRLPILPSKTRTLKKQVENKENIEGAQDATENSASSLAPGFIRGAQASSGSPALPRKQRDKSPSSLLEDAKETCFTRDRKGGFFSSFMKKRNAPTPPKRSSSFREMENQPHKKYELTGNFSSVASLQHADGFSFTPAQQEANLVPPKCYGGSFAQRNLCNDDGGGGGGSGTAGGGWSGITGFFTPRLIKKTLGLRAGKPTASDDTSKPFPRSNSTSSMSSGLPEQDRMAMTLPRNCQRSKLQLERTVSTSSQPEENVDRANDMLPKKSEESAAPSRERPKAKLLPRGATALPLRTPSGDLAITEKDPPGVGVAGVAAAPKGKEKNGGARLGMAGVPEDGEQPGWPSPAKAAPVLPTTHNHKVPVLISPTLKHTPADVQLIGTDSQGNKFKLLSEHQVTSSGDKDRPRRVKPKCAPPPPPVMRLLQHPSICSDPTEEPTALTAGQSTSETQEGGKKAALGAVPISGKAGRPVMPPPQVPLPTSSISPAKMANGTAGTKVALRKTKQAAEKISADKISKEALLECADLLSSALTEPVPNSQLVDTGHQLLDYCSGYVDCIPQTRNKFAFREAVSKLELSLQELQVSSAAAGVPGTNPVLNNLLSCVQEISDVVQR
Sequence of Tyrosine-protein kinase Fyn (P06241 whole entry): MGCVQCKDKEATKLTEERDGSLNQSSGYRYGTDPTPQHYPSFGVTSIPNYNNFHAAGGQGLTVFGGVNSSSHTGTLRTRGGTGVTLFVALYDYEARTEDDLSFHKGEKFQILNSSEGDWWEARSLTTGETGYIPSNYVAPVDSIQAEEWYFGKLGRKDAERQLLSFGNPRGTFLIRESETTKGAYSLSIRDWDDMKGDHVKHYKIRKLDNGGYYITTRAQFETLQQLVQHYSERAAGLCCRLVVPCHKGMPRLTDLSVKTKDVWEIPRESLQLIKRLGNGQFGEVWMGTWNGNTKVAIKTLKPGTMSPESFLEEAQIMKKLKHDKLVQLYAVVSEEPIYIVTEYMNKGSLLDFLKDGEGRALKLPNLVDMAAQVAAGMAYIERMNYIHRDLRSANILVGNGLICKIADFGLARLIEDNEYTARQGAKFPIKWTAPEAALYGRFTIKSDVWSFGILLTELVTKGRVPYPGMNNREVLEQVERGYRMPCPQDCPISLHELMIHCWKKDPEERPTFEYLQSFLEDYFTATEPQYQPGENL
Sequence of Tyrosine-protein kinase Yes (P07947 whole entry): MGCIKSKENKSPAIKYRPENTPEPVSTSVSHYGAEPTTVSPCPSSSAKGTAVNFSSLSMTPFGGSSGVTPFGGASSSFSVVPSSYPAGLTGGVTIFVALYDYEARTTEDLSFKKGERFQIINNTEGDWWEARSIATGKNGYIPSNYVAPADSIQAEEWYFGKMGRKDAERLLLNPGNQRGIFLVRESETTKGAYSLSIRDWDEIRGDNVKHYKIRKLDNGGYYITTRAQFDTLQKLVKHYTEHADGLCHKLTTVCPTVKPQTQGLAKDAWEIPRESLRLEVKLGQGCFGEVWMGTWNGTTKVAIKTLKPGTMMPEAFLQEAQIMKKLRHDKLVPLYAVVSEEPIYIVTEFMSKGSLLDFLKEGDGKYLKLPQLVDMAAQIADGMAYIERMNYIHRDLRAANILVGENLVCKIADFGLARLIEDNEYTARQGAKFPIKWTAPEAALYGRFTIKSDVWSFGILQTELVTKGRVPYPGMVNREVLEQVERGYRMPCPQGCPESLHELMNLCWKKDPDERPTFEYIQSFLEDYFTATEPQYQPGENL
Sequence of Tyrosine-protein kinase CSK (P41240 whole entry): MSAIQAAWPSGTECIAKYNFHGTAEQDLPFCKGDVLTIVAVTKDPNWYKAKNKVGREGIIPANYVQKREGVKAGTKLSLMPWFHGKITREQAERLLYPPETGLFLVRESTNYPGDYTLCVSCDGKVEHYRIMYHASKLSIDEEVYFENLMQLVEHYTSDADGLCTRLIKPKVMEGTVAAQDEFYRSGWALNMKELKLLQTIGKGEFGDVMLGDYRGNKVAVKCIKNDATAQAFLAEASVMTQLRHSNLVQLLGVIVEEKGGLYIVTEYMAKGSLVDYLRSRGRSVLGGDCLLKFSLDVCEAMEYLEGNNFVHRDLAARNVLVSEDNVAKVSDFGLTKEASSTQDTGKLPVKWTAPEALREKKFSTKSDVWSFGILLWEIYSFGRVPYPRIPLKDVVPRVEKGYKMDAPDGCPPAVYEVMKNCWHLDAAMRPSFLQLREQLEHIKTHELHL

Regarding `Cc1cc([C@@H](C)Nc2ccccc2C(=O)O)c2nc(N3CCOCC3)cc(=O)n2c1` [AZD-6482], the Kd in assay [1], in [2], in assay [3], in [4], in assay [5] and in assay [6] was > 30 µM (inactive) in each case. In addition, the Kd in assay [7], in assay [8], in [9] and in assay [10] was > 30 µM (inactive) throughout.
`CN1CCC(CNc2ccc3ncc(-c4cccc(OC(F)(F)F)c4)n3n2)CC1` [SGI-1776]: the Kd in assay [1], in [2], in assay [3], in assay [4], in assay [5] and in assay [6] was > 30 µM (inactive) each time. In addition, the Kd in [7], in [8], in assay [9] and in assay [10] was > 30 µM (inactive) throughout.
On to `CC(C)Nc1cc(-c2c[nH]c(C(=O)N[C@H](CO)c3cccc(Cl)c3)c2)c(Cl)cn1` [ULIXERTINIB], for which the Kd in assay [1], in assay [2], in assay [3], in assay [4], in [5] and in assay [6] was > 30 µM (inactive) throughout. Moreover, the Kd in [7], in assay [8], in [9] and in assay [10] was > 30 µM (inactive) throughout.
Regarding `CNC(=O)c1cc(Oc2ccc(NC(=O)Nc3ccc(Cl)c(C(F)(F)F)c3)c(F)c2)ccn1` [REGORAFENIB], the Kd in [1], in assay [2], in assay [3], in assay [4], in assay [5] and in assay [6] was > 30 µM (inactive) in each case. Moreover, the Kd in assay [7], in assay [8], in assay [9] and in assay [10] was > 30 µM (inactive) each time.
As to `Cc1ccc(-n2nc(C(C)(C)C)cc2NC(=O)NCc2cc(F)ccc2Oc2ccc3c(cnn3CCO)c2)cc1` [PEXMETINIB], the Kd in assay [1] was 0.351 µM (active); in assay [2], > 30 µM (inactive); in assay [3] it was > 30 µM (inactive); in assay [4] it was > 30 µM (inactive); in [5], 2.14 µM; in assay [6], > 30 µM (inactive). The Kd in [7], in [8], in assay [9] and in [10] was > 30 µM (inactive) each time.
For the compound `CN(C)C(=O)c1cc2cnc(Nc3ccc(N4CCNCC4)cn3)nc2n1C1CCCC1` [RIBOCICLIB], the Kd in assay [1], in assay [2], in assay [3], in assay [4], in assay [5] and in assay [6] was > 30 µM (inactive) in each case. Moreover, the Kd in assay [7], in assay [8], in [9] and in [10] was > 30 µM (inactive) throughout.
As to `CC[C@H](Nc1ncnc2[nH]cnc12)c1nc2cccc(F)c2c(=O)n1-c1ccccc1` [IDELALISIB], the Kd in [1], in [2], in assay [3], in assay [4], in assay [5] and in assay [6] was > 30 µM (inactive) in each case. Further, the Kd in assay [7], in [8], in assay [9] and in assay [10] was > 30 µM (inactive) throughout.
For `CN1CC[C@@H](c2c(O)cc(O)c3c(=O)cc(-c4ccccc4Cl)oc23)[C@@H]1CO`, the Kd in [1], in [2], in assay [3], in assay [4], in [5] and in [6] was > 30 µM (inactive) throughout. Further, the Kd in assay [7], in [8], in assay [9] and in [10] was > 30 µM (inactive) each time.
For the compound `O=C(c1ccc(F)c(F)c1Nc1ccc(I)cc1F)N1CC(O)([C@@H]2CCCCN2)C1` [COBIMETINIB], the Kd in assay [1], in [2], in assay [3], in assay [4], in [5] and in [6] was > 30 µM (inactive) throughout. For the same compound, the Kd in assay [7], in assay [8], in [9] and in assay [10] was > 30 µM (inactive) in each case.
Turning to `Cc1cc(-c2cc(O)ccc2Cl)cc2nnc(Nc3ccc(OCCN4CCCC4)cc3)nc12`, the Kd in [1] was 0.001 µM (active); in assay [2], > 30 µM (inactive); in assay [3], > 30 µM (inactive); in [4], > 30 µM (inactive); in [5], > 30 µM (inactive); in [6] it was > 30 µM (inactive). Also, the Kd in assay [7] is > 30 µM (inactive); in assay [8] it was > 30 µM (inactive); in assay [9], > 30 µM (inactive); in assay [10] it was 0.001 µM (active).
